# Laboratory results published in US20080039410A1, “Inositol 1,4,5-Trisphosphate Receptor Mutants and Uses Thereof” (priority 2004, published 2008).
# Entries after “also recorded” stand apart in the source; their conditions may differ. Read-outs that look alike come from different tables or passages of the source.
# Tests used:
# S2− InsP3R-1 [1] = assay: Phosphorylation of Ser-1755 after forskolin in transfected HEK-293 cells (immunoprecipitation, Western blot); format: cell-based, rat; settings: 20 μM forskolin 10 min, α-phospho-Ser-1755 blot
# Protocol: HEK-293 cells were plated onto 25-cm^2 culture flasks and allowed to grow to near-confluency. Cells were transfected with 5 μg of each S2− InsP3R-1 DNA construct by using the LipofectAMINE reagent (Invitrogen) as per the manufacturer's instructions. The following day, batches of cells were treated in the presence or absence of 20 μM forskolin for 10 min, aspirated from flasks, lysed, and immunoprecipitated with a polyclonal α-InsP3R-1 antibody that recognizes amino acids 2731-2749 of InsP3R-1. Immunoprecipitates were separated on 5% SDS gels transferred to nitrocellulose and then probed with either the α-InsP3R-1 antibody or a polyclonal antibody that recognizes the phosphorylated state of Ser-1755 (39) (α-phospho-Ser-1755), kindly provided by Dr. S. Snyder. Blots that were probed with a-phospho-Ser-1755were stripped and reprobed with the α-InsP3R-1 antisera to confirm the presence and relative quantity of the InsP3R-1.
# The enhanced apparent sensitivity of individual phosphomimetic mutants was essentially equal and intermediate between the sensitivity of the S2−WT and S2−EE mutations. […] To address this possibility directly, experiments were performed evaluating the effects of activating endogenous PKA in cells expressing S2−SE or S2−ES to mimic prior phosphorylation of an individual site. […] To test this, experiments were performed to determine the phosphorylation state of the various mutants after raising cAMP levels. These experiments were performed in HEK-293 cells because of the high transfection efficiency and low endogenous levels of InsP3R-1 (47, 99). […] Following incubation of the lysates with α-InsP3R-1 antibody, the immune complexes were captured and separated on SDS gels, and the phosphorylation status of Ser-1755 was determined by Western blotting with an antibody that specifically recognizes this phosphorylated residue in InsP3R-1 (39).
# S2− InsP3R-1 [2] = assay: CCh concentration-response of Ca2+ release in Dt-40 3ko cells expressing m3R and S2− InsP3R-1 constructs; format: cell-based, rat; settings: for maximum peak Δ response to CCh: Fura-2 340/380 ratio; for fold change from WT (CCh EC50): S2 − InsP3R-1 constructs, Table 2; for EC50: fit of normalized initial peak, read-out: EC50 for CCh-induced Ca^2+ release
# Source text: The rat S2^+ InsP3R-1 in the expression plasmid pIRES-GFP was digested with the restriction endonuclease SalI. The overhang created by digestion was blunted by using T4 polymerase. An EcoRI linker was then ligated onto the blunted ends of the construct. The entire receptor DNA was excised from the plasmid using EcoRI and ligated into the plasmid MXT-1. The region containing the S2^− splice variant and potential PKA phosphorylation sites was excised from its backbone in pCDNA 3.1+ by RsrII and KasI and ligated into the InsP3R construct in MXT-1. The potential PKA phosphorylation sites Ser-1589 and Ser-1755 were mutated, individually in both splice variants and together in the S2^− splice variant, to alanines or glutamates by using sequential PCR mutagenesis. The outside primers used for the mutagenesis reaction flanked the restriction sites RsrII and KasI. Following mutation, the resulting fragments were cut with RsrII and KasI and inserted into the InsP3R-1 backbone at the corresponding sites. The mutations were confirmed by Big Dye fluorescent sequencing. Mutated receptor DNAs were excised from MXT-1 by using EcoRI and ligated into the mammalian expression vector pGW (provided by Dr. David Yue, Johns Hopkins University). Orientation was confirmed by using restriction enzyme digestion. Mutants were named based on the splice variant, either S2+ or S2− followed by the amino acid present at position 1589 and 1755. Thus, a mutation in S2^+ InsP3R-1 S1755E is designated, “S2+SE,” and in InsP3R-1 […] S1755A is designated “S2^−SA”. Similarly, an S2− InsP3R-1 with mutations in both S1589E and S1755E is designated “S2−EE”. The numbering of residues is based on the full-length rat InsP3R-1.
# Dt-40 cells lacking all three InSP3 receptor subtypes were transfected by using electroporation at 350 V and 950 microfarads (4-mm gap cuvette). 2×10^7 cells were co-transfected with 25 μg of the InsP3R-1 cDNA, 25 μof the muscarinic type 3 (m3R) receptor DNA, and 4 μg of the red fluorescent protein plasmid pHcRed1-N1 (Clontech). Cells were incubated with DNA in 500 μl of Opti-MEM media (Invitrogen) on ice for 10 min. The cell/DNA mixture was electroporated, incubated on ice for 30 min, increased to 5 ml with Opti-MEM, and placed in a 5% CO2 incubator at 39° C. for 5 h. The cells were then centrifuged and resuspended in 12 ml of complete RPMI media (Invitrogen). Transfection efficiency was typically ˜20%. Experiments were performed within 32 h of transfection.
# Transfected Dt-40 3ko cells were washed once in a HEPES-buffered physiological saline solution (HEPES-PSS) containing (in mM) 5.5 glucose, 137 NaCl, 0.56 MgCl2, 4.7 KCl, 1 Na2HPO4, 10 HEPES (pH 7.4), 1.2 CaCl2, and 1% w/v bovine serum albumin. Cells were then resuspended in bovine serum albumin HEPES-PSS with 1 μM Fura-2 (AM), placed on a 15-mm glass coverslip in a low volume perfusion chamber, and allowed to adhere for 30 min at room temperature. Cells were perfused continuously for 10 min with HEPES-PSS before experimentation to allow complete Fura-2 de-esterification. A field of cells for each experiment was chosen that contained a wide range of transfection efficiency based upon the intensity of red fluorescence emitted when excited at 560 nm. Individual cells that had emission gray levels between 1500 and 2500 were subsequently chosen to standardize expression levels. [Ca^2+]i imaging was performed essentially as described previously by using an inverted epifluorescence Nikon microscope with a 40× oil immersion objective lens (numerical aperture, 1.3) (100). Cells were excited alternately with light at 340 and 380±10 nm bandpass filters (Chroma, Rockingham, Vt.) using a monochrometer (TILL Photonics, Pleasanton, Calif.). Fluorescence images were captured and digitized with a digital camera driven by TILL Photonics software. Images were captured every 2 s with an exposure of 2 ms and 4 by 4 binning. 340/380 ratio images were calculated online and stored immediately to a hard disk. […]
# [3] = listed as S1589E/S1755E mutant InsP3R-1
Substance,phosphorylation of Ser-1755 after forskolin (S2− InsP3R-1 [1]),maximal response in full CCh concentration-response curve (S2− InsP3R-1 [2]),sensitivity of CCh-induced Ca^2+ release relative to other constructs (S2− InsP3R-1 [2]),maximum peak Δ response to CCh (S2− InsP3R-1 [2]),fold change from WT (CCh EC50) (S2− InsP3R-1 [2]) [fold],EC50 (S2− InsP3R-1 [2]) [nM],fold more sensitive than nonphosphorylatable S1589A/S1755A S2− InsP3R-1 (S2− InsP3R-1 [2]; listed as S2− mutant) [fold],fold more sensitive than wild type S2− InsP3R-1 (CCh-induced Ca^2+ release) (S2− InsP3R-1 [2]; listed as S2− mutant) [fold],fold more sensitive than nonphosphorylatable S1589A/S1755A S2− InsP3R-1 (S2− InsP3R-1 [2]; [3]),fold more sensitive than wild type S2− InsP3R-1 (CCh-induced Ca^2+ release) (S2− InsP3R-1 [2]; [3]),sensitivity of CCh-induced Ca^2+ release relative to other constructs (S2− InsP3R-1 [2]; [3]),fold more sensitive than wild type S2− InsP3R-1 (CCh-induced Ca^2+ release) (S2− InsP3R-1 [2]) [fold],phosphorylation of Ser-1755 after forskolin (S2− InsP3R-1 [1]; listed as S2−InsP3R-1),phosphorylation of Ser-1755 after forskolin (S2− InsP3R-1 [1]; listed as wild type S2^−InsP3R-1)
G1690A: InsP3R-1 S2− variant with glycine to alanine substitution at position 1690 (nucleotide binding site mutant),not susceptible to phosphorylation; also recorded: not phosphorylated,comparable to that seen in the wild-type receptor,,,,,,,,,,,,
S2−EE: phosphomimetic S1589E/S1755E mutant of the short splice variant,no phosphorylation,,greatest,1.13+0.1 ratio units,7.6,4.3,~50,7.5,approximately 35 fold,approximately 7.5 fold,markedly potentiated Ca^2+ release,,,
S2−ES: phosphomimetic short splice variant S1589E,no phosphorylation; also recorded: lack of phosphorylation,,intermediate sensitivity,0.54±0.1 ratio units,2.6,12.4 ± 0.5,,,,,,~3,,
S2−SE: phosphomimetic short splice variant of S1755E,no phosphorylation,,intermediate sensitivity,0.78±0.1 ratio units,2.4,13.5 ± 1,,,,,,~3,,
"S2−WT: wild-type rat type-1 InsP3 receptor, peripheral short S2− splice variant (SEQ ID NO: 17)",,,,0.9±0.1 ratio units,1,32.6 ± 7.5,,,,,,,results in phosphorylation,robustly phosphorylated
